Experimental data reported in US5061728A, “Use of 4-phenyl-1,2,3,4-tetrahydro-1-naphthalenamine derivatives in the treatment of inflammation and as immunosuppressants” (Pfizer Inc., priority 1990, dated 1991).

These compounds were tested against sigma receptors in brain tissue (assay: In vitro binding: inhibition of (+)-[3H]3-PPP binding in rat whole brain membranes). Settings: Table 1, racemates, 3 nM (+)-[3H]3-PPP.
Method: Affinity of disclosed compounds for sigma receptors in brain tissue was ascertained by the degree of inhibition of binding of the sigma site radioligand, (+)-[^3 H]3-(3-hydroxphenyl)-N-(1-propyl)piperidine ((+)-[^3 H]3-PPP) in competition experiments in vitro. These experiments were conducted by the method of Largent et al. Proc. Nat. Acad. Sec. […] Brains were removed from Sprague-DawleyCD male rats (Charles River Breeding Laboratories, Inc., Wilmington, Mass.; 200-300 g) following decapitation. Whole brain was homogenized in 25 volumes (v/w) of ice-cold 50 mM Tris (tris(hydroxymethyl)amino methane) hydrochloride pH 7.7 buffer using a Polytron PT-10 homogenizer. The pellet resulting from centrifugation of the homogenate at 45,000×g for 10 minutes at 0°-5° was washed twice by resuspension in the same volume of fresh buffer and recentrifugation. The final pellet was dispersed in 50 mM Tris hydrochloride pH 8.0 buffer (50 ml/g of original weight; "tissue preparation"). The incubation mixture in triplicate was comprised of 0.05 ml blank (10 μM pentazocine for nonspecific binding), test compound or vehicle; 0.20 ml (+)-[^3 H]3-PPP (110 Ci/mmol, NEN® DuPont; 3 nM final concentration) in 50 mM Tris hydrochloride pH 8.0 buffer; and 0.75 ml tissue preparation. The latter was added just prior to incubation of the mixture at 25° C. for 90 minutes. Afterwards, the mixture was diluted with 2.5 ml 10 mM Tris hydrochloride pH 7.7 buffer and filtered under vacuum through a Whatman GF/B glass-fiber filter (pretreated with 1% polyethyleneimine) in a Brandell cell harvester to recover the membranes. The filter was washed twice with the diluent buffer and placed in 10 ml Aquasol-2 (NEN® DuPont Co.) for determination of bound radioactivity in a liquid scintillation counter.

Row | Structure (SMILES) | IC50 [nM]
1 | CN[C@H]1CC[C@H](c2ccc(Br)cc2)c2ccccc21 (relative stereo) [(±)-trans 4-Br NHCH3] | 85
2 | CN(C)[C@H]1CC[C@H](c2ccc(Cl)c(Cl)c2)c2ccccc21 (relative stereo) [(±)-trans 3,4-diCl N(CH3)2] | 30
3 | CN[C@H]1CC[C@@H](c2ccc(Cl)c(C(F)(F)F)c2)c2ccccc21 (relative stereo) [(±)-cis 3-CF3,4-Cl NHCH3] | 11
4 | CN(C)[C@H]1CC[C@@H](c2ccc(Cl)c(Cl)c2)c2ccccc21 (relative stereo) [(±)-cis 3,4-diCl N(CH3)2] | 44
5 | CN[C@H]1CC[C@H](c2cccc(C(F)(F)F)c2)c2ccccc21 (relative stereo) [(±)-trans 3-CF3 NHCH3] | 16
6 | CN[C@H]1CC[C@H](c2ccc(Cl)c(C(F)(F)F)c2)c2ccccc21 (relative stereo) [(±)-trans 3-CF3,4-Cl NHCH3] | 31
7 | CN[C@H]1CC[C@H](c2ccc(F)cc2)c2ccccc21 (relative stereo) [(±)-trans 4-F NHCH3] | 66
8 | CN[C@H]1CC[C@@H](c2ccc(Br)cc2)c2ccccc21 (relative stereo) [(±)-cis 4-Br NHCH3] | 13

Next, values leading:

Row | IC50 [nM] | Structure (SMILES)
9 | 5.9 | CN[C@H]1CC[C@@H](c2ccc(C(F)(F)F)cc2)c2ccccc21 (relative stereo) [(±)-cis 4-CF3 NHCH3]
10 | 33 | CN[C@H]1CC[C@@H](c2ccc(Cl)cc2)c2ccccc21 (relative stereo) [(±)-cis 4-Cl NHCH3]
11 | 29 | CN[C@H]1CC[C@@H](c2ccc(Cl)cc2Cl)c2ccccc21 (relative stereo) [(±)-cis 2,4-diCl NHCH3]
12 | 39 | CN[C@H]1CC[C@H](c2ccc(C(F)(F)F)cc2)c2ccccc21 (relative stereo) [(±)-trans 4-CF3 NHCH3]
13 | 75 | CN[C@H]1CC[C@H](c2ccc(Cl)cc2)c2ccccc21 (relative stereo) [(±)-trans 4-Cl NHCH3]

Same assay, conditions: Table 2, enantiomers, 3 nM (+)-[3H]3-PPP

Row | IC50 [nM] | Structure (SMILES)
14 | 58 | N[C@H]1CC[C@@H](c2ccc(Cl)c(Cl)c2)c2ccccc21 [(+)-1S, 4S 3,4-diCl NH2, Cis(1S) (4S)-amino-4-(3,4-dichlorophenyl)-1,2,3,4-tetrahydro-1-naphthalenamine]
15 | 28 | CN(C)[C@H]1CC[C@@H](c2ccc(Cl)c(Cl)c2)c2ccccc21 [(+)-1S, 4S 3,4-diCl N(CH3)2, Cis(1S) (4S)-N,N-dimethyl-4-(3,4-dichlorophenyl)-1,2,3,4-tetrahydro-1-naphthalenamine]
16 | 8.7 | CN[C@H]1CC[C@@H](c2ccc(Cl)cc2)c2ccccc21 [(+)-1S, 4S 4-Cl NHCH3, Cis(1S) (4S)-N-methyl-4-(4-chlorophenyl)-1,2,3,4-tetrahydro-1-naphthalenamine]
17 | 17 | CN[C@H]1CC[C@@H](c2ccc(Cl)c(C(F)(F)F)c2)c2ccccc21 [(+)-1S, 4S 3-CF3,4-Cl NHCH3, Cis(1S) (4S)-N-methyl-4-(3-trifluoromethyl, 4-chloro-phenyl)-1,2,3,4-tetrahydro-1-naphthalenamine]
